Measured values taken from article PMC7248880, “Preclinical Incorporation Dosimetry of [^18F]FACH—A Novel ^18F-Labeled MCT1/MCT4 Lactate Transporter Inhibitor for Imaging Cancer Metabolism with PET” (Molecules, 2020).

Assay: Whole-body PET/CT distribution of activity
Type: in vivo, piglets
Description: Early accumulation in the bone structures might be related to defluorination. At later time points, activity also accumulated in the gall bladder and the urinary bladder.
Three piglets (age: ~6 weeks, weight: ~13–15 kg) were fasted on the day of imaging and received an intranuscular. injection of 1 mL azaperone and 4 mL ketamine to introduce anesthesia. […] During narcosis, the animals maintained spontaneous respiration and no mandatory ventilation was applied. The subjects were sequentially imaged after an iv injection (contralateral ear vein) of 156 ± 54 MBq [^18F]FACH (0.63 ± 0.49 µg) in a PET/CT system (Biograph16, SIEMENS, Erlangen, Germany). The piglets were positioned prone with legs alongside the body on a custom-made plastic trough including a piglet head-holder (Figure 5). The PET acquisition was divided into a sequential (4 × 9 min, 3 × 12 min) and a static part (1 × 24 min, 1 × 30 min, 1 × 36 min), each of which was preceded by a low-dose CT to acquire structural data for attenuation correction (AC) and anatomical orientation (Figure 6). Post mortem, the urine was collected by bladder punctuation, weighted, and divided into three 1 mL samples for activity measurements in a gamma-counter (Packard Cobra II 5003 Auto Gamma Counting System, GMI, Ramsey, MN, USA).
The image data were analyzed with ROVER (ABX, Radeberg, Germany; v. 3.0.46h). […]

In the case of `CCCN(CCC[18F])c1ccc(/C=C(\C#N)C(=O)O)c(OC)c1` [[^18F]FACH, (E)-2-cyano-3-{4-[(3-[^18F]fluoropropyl)(propyl)amino]-2-methoxyphenyl}acrylic acid], the “distribution of activity (organs with high uptake)” value (one representative animal, PET at different times p.i.) is reported as “high uptake in the liver, pancreas, small intestines, and spleen” and the “route of excretion indicated by PET” value (rapid uptake in liver, later gall bladder) is reported as “hepatobiliary excretion”.
